Measurements taken from US12473304B2, “Heterocyclic PAD4 inhibitors” (BRISTOL-MYERS SQUIBB COMPANY, priority 2020, dated 2025).

Biological target: human PAD4 (hPAD4) (Homo sapiens (Human), UniProt Q9UM07)
Test: RFMS Human PAD4 Functional Assay 1
Format: biochemical
Settings: RFMS assay 1; 5 nM hPAD4, 250 μM BAEE substrate, 50 μM calcium, 37° C.
Summary of the method: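 Citrullination product read by RapidFire triple-quad MRM against a modified-citrulline internal standard, after TCA stop and 30 min phenyl glyoxal step at 37 °C. Reaction: 250 μM BAEE, 5 nM human PAD4, 90 min at 37 °C, pH 7.5 HEPES buffer with 50 μM calcium and 5 μM TPEN, following 30 min compound–enzyme preincubation (max 50 μM).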

Sequence of human PAD4 (hPAD4) (Q9UM07 whole entry): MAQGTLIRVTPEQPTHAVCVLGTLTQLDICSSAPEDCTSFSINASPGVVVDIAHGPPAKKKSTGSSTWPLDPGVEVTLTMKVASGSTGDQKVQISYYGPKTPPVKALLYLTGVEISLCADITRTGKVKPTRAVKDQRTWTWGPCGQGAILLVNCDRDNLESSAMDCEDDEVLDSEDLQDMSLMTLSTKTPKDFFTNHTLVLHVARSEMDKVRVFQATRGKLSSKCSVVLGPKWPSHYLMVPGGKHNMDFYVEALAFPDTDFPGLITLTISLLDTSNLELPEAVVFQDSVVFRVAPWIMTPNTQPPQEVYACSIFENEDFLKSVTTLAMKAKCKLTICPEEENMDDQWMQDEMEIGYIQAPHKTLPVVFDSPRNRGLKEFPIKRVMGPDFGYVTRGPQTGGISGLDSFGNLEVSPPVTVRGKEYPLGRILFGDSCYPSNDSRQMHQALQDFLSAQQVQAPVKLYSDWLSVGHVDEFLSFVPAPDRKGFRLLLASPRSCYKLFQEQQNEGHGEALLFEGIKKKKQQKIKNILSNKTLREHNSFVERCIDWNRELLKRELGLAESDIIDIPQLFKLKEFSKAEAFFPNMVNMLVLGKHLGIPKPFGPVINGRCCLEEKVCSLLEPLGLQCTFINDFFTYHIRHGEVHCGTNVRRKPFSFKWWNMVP

SMILES | IC50 [nM]
COc1cc(C(=O)N2C[C@H](N)C[C@@H](F)C2)cn2nc(-c3cc4cccc(C5CN(C(=O)[C@@H](C)OC)C5)c4n3CC3CC3)c(C)c12 [Example 526, (R)-1-(3-(2-(6-((3R,5R)-3-Amino-5-fluoropiperidine-1-carbonyl)-4-methoxy-3-methylpyrazolo[1,5-a]pyridin-2-yl)-1-(cyclopropylmethyl)-1H-indol-7-yl)azetidin-1-yl)-2-methoxypropan-1-one] | 260
COCC(=O)N1CC(c2cccc3cc(-c4nn5cc(C(=O)N6C[C@H](N)C[C@@H](F)C6)cc(OC)c5c4C)n(CC4CC4)c23)C1 [Example 527, 1-(3-(2-(6-((3R,5R)-3-Amino-5-fluoropiperidine-1-carbonyl)-4-methoxy-3-methylpyrazolo[1,5-a]pyridin-2-yl)-1-(cyclopropylmethyl)-1H-indol-7-yl)azetidin-1-yl)-2-methoxyethan-1-one] | 50
COCC(=O)N1CC(c2cccc3cc(-c4nn5cc(C(=O)N6CCC[C@@H](N)C6)cc(OC)c5c4C)n(CC4CC4)c23)C1 [Example 528, (R)-1-(3-(2-(6-(3-Aminopiperidine-1-carbonyl)-4-methoxy-3-methylpyrazolo[1,5-a]pyridin-2-yl)-1-(cyclopropylmethyl)-1H-indol-7-yl)azetidin-1-yl)-2-methoxyethan-1-one] | 15000
COCC(=O)N1CC(c2cccc3cc(-c4nn5cc(C(=O)N6CCC[C@@H](N)C6)cc(OC)c5c4C)n(CC4CC4)c23)C1 [Example 529, (R)-1-(3-(2-(6-(3-Aminopiperidine-1-carbonyl)-4-methoxy-3-methylpyrazolo[1,5-a]pyridin-2-yl)-1-(cyclopropylmethyl)-1H-indol-7-yl)azetidin-1-yl)-2-methoxyethan-1-one] | 1530
Cc1c(-c2cc3cccc(C4CN(C(=O)[C@H]5CC[C@H](O)CC5)C4)c3n2CC2CC2)nn2cc(C(=O)N3CCC[C@@H](N)C3)ccc12 [Example 530, ((R)-3-Aminopiperidin-1-yl)(2-(1-(cyclopropylmethyl)-7-(1-((1r,4r)-4-hydroxycyclohexane-1-carbonyl)azetidin-3-yl)-1H-indol-2-yl)-3-methylpyrazolo[1,5-a]pyridin-6-yl)methanone] | 30
Cc1c(-c2cc3cccc(C4CN(C(=O)[C@@H]5CCC[C@H](O)C5)C4)c3n2CC2CC2)nn2cc(C(=O)N3C[C@H](N)C[C@@H](F)C3)ccc12 [Example 531, ((3R,5R)-3-Amino-5-fluoropiperidin-1-yl)(2-(1-(cyclopropylmethyl)-7-(1-((1R,3S)-3-hydroxycyclohexane-1-carbonyl)azetidin-3-yl)-1H-indol-2-yl)-3-methylpyrazolo[1,5-a]pyridin-6-yl)methanone] | 580
Cc1c(-c2cc3cccc(C4CN(C(=O)[C@@H]5CCC[C@H](O)C5)C4)c3n2CC2CC2)nn2cc(C(=O)N3CCC[C@@H](N)C3)ccc12 [Example 532, ((R)-3-Aminopiperidin-1-yl)(2-(1-(cyclopropylmethyl)-7-(1-((1R,3S)-3-hydroxycyclohexane-1-carbonyl)azetidin-3-yl)-1H-indol-2-yl)-3-methylpyrazolo[1,5-a]pyridin-6-yl)methanone] | 1010
Cc1c(-c2cc3cccc(C4CN(C(=O)[C@H]5CCC[C@@H](O)C5)C4)c3n2CC2CC2)nn2cc(C(=O)N3C[C@H](N)C[C@@H](F)C3)ccc12 [Example 533, ((3R,5R)-3-Amino-5-fluoropiperidin-1-yl)(2-(1-(cyclopropylmethyl)-7-(1-((1S,3R)-3-hydroxycyclohexane-1-carbonyl)azetidin-3-yl)-1H-indol-2-yl)-3-methylpyrazolo[1,5-a]pyridin-6-yl)methanone] | 520
Cc1c(-c2cc3cccc(C4CN(C(=O)[C@H]5CCC[C@@H](O)C5)C4)c3n2CC2CC2)nn2cc(C(=O)N3CCC[C@@H](N)C3)ccc12 [Example 534, ((R)-3-Aminopiperidin-1-yl)(2-(1-(cyclopropylmethyl)-7-(1-((1S,3R)-3-hydroxycyclohexane-1-carbonyl)azetidin-3-yl)-1H-indol-2-yl)-3-methylpyrazolo[1,5-a]pyridin-6-yl)methanone] | 440
COC(C)(C)C(=O)N1CC(c2cccc3cc(-c4nn5cc(C(=O)N6CCC[C@@H](N)C6)ccc5c4C)n(CC4CC4)c23)C1 [Example 536, (R)-1-(3-(2-(6-(3-Aminopiperidine-1-carbonyl)-3-methylpyrazolo[1,5-a]pyridin-2-yl)-1-(cyclopropylmethyl)-1H-indol-7-yl)azetidin-1-yl)-2-methoxy-2-methylpropan-1-one] | 2520
Cc1c(-c2cc3cccc(C4CN(C(=O)[C@H]5CC[C@H](O)CC5)C4)c3n2CC2CC2)nn2cc(C(=O)N3C[C@H](N)C[C@@H](F)C3)ccc12 [Example 537, ((3R,5R)-3-Amino-5-fluoropiperidin-1-yl)(2-(1-(cyclopropylmethyl)-7-(1-((1r,4r)-4-hydroxycyclohexane-1-carbonyl)azetidin-3-yl)-1H-indol-2-yl)-3-methylpyrazolo[1,5-a]pyridin-6-yl)methanone] | 70
Cc1c(-c2cc3cccc(C4CN(C(=O)[C@H]5CC[C@@H](O)CC5)C4)c3n2CC2CC2)nn2cc(C(=O)N3C[C@H](N)C[C@@H](F)C3)ccc12 [Example 538, ((3R,5R)-3-Amino-5-fluoropiperidin-1-yl)(2-(1-(cyclopropylmethyl)-7-(1-((1s,4s)-4-hydroxycyclohexane-1-carbonyl)azetidin-3-yl)-1H-indol-2-yl)-3-methylpyrazolo[1,5-a]pyridin-6-yl)methanone] | 40
Cc1c(-c2cc3cccc(C4CN(C(=O)[C@H]5CC[C@@H](O)CC5)C4)c3n2CC2CC2)nn2cc(C(=O)N3CCC[C@@H](N)C3)ccc12 [Example 539, ((R)-3-Aminopiperidin-1-yl)(2-(1-(cyclopropylmethyl)-7-(1-((1s,4s)-4-hydroxycyclohexane-1-carbonyl)azetidin-3-yl)-1H-indol-2-yl)-3-methylpyrazolo[1,5-a]pyridin-6-yl)methanone] | 130
CO[C@H](C)C(=O)N1CC(c2cccc3cc(-c4nn5cc(C(=O)N6C[C@H](N)C[C@@H](F)C6)ccc5c4C)n(CC4CC4)c23)C1 [Example 540, (R)-1-(3-(2-(6-((3R,5R)-3-Amino-5-fluoropiperidine-1-carbonyl)-3-methylpyrazolo[1,5-a]pyridin-2-yl)-1-(cyclopropylmethyl)-1H-indol-7-yl)azetidin-1-yl)-2-methoxypropan-1-one] | 1100
CO[C@H](C)C(=O)N1CC(c2cccc3cc(-c4nn5cc(C(=O)N6CCC[C@@H](N)C6)ccc5c4C)n(CC4CC4)c23)C1 [Example 541, (R)-1-(3-(2-(6-((R)-3-Aminopiperidine-1-carbonyl)-3-methylpyrazolo[1,5-a]pyridin-2-yl)-1-(cyclopropylmethyl)-1H-indol-7-yl)azetidin-1-yl)-2-methoxypropan-1-one] | 2530
CO[C@@H](C)C(=O)N1CC(c2cccc3cc(-c4nn5cc(C(=O)N6C[C@H](N)C[C@@H](F)C6)ccc5c4C)n(CC4CC4)c23)C1 [Example 542, (S)-1-(3-(2-(6-((3R,5R)-3-Amino-5-fluoropiperidine-1-carbonyl)-3-methylpyrazolo[1,5-a]pyridin-2-yl)-1-(cyclopropylmethyl)-1H-indol-7-yl)azetidin-1-yl)-2-methoxypropan-1-one] | 580
CO[C@@H](C)C(=O)N1CC(c2cccc3cc(-c4nn5cc(C(=O)N6CCC[C@@H](N)C6)ccc5c4C)n(CC4CC4)c23)C1 [Example 543, (S)-1-(3-(2-(6-((R)-3-aminopiperidine-1-carbonyl)-3-methylpyrazolo[1,5-a]pyridin-2-yl)-1-(cyclopropylmethyl)-1H-indol-7-yl)azetidin-1-yl)-2-methoxypropan-1-one] | 630
COCC(=O)N1CC(c2cccc3cc(-c4nn5cc(C(=O)N6CCC[C@@H](N)C6)ccc5c4C)n(CC4CC4)c23)C1 [Example 546, (R)-1-(3-(2-(6-(3-Aminopiperidine-1-carbonyl)-3-methylpyrazolo[1,5-a]pyridin-2-yl)-1-(cyclopropylmethyl)-1H-indol-7-yl)azetidin-1-yl)-2-methoxyethan-1-one] | 560
COCC(=O)N1CC(c2cccc3cc(-c4nn5cc(C(=O)N6C[C@H](N)C[C@@H](F)C6)ccc5c4C)n(CC4CC4)c23)C1 [Example 547, 1-(3-(2-(6-((3R,5R)-3-Amino-5-fluoropiperidine-1-carbonyl)-3-methylpyrazolo[1,5-a]pyridin-2-yl)-1-(cyclopropylmethyl)-1H-indol-7-yl)azetidin-1-yl)-2-methoxyethan-1-one] | 490
CC(=O)N1CC(c2cccc3cc(-c4nn5cc(C(=O)N6C[C@H](N)C[C@@H](F)C6)ccc5c4C)n(CC4CC4)c23)C1 [Example 548, 1-(3-(2-(6-((3R,5R)-3-Amino-5-fluoropiperidine-1-carbonyl)-3-methylpyrazolo[1,5-a]pyridin-2-yl)-1-(cyclopropylmethyl)-1H-indol-7-yl)azetidin-1-yl)ethan-1-one] | 170
CC(=O)N1CC(c2cccc3cc(-c4nn5cc(C(=O)N6CC7CCC6[C@@H]7N)ccc5c4C)n(CC4CC4)c23)C1 (stereo partly drawn) [Example 549, 1-(3-(2-(6-((7R)-7-Amino-2-azabicyclo[2.2.1]heptane-2-carbonyl)-3-methylpyrazolo[1,5-a]pyridin-2-yl)-1-(cyclopropylmethyl)-1H-indol-7-yl)azetidin-1-yl)ethan-1-one] | 10
COc1cc(C(=O)N2C[C@H](N)C[C@@H](F)C2)cn2nc(-c3cc4cccc(OC[C@H]5CCC(=O)N5)c4n3CC3CC3)c(C)c12 [Example 550, (R)-5-(((2-(6-((3R,5R)-3-amino-5-fluoropiperidine-1-carbonyl)-4-methoxy-3-methylpyrazolo[1,5-a]pyridin-2-yl)-1-(cyclopropylmethyl)-1H-indol-7-yl)oxy)methyl)pyrrolidin-2-one] | 50
